Measured values published in the supplement of paper PMC10307832.

What was measured:
Test in all cases: relative viability (nuclei count vs DMSO), 5 days (fraction); higher = more cells survive
Tipifarnib = compound: Cn1cncc1[C@@](N)(c1ccc(Cl)cc1)c1ccc2c(c1)c(-c1cccc(Cl)c1)cc(=O)n2C [Tipifarnib]
Summary of the method: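 Acceptance criteria were a control CV below 25% and at least one doubling per plate. Lung cancer cell lines in 1536-well plates got five library-drug doses (not always all listed) √10 apart by pinning and were left 5 days with no medium change. Viability divides treated-well nuclei by vehicle-well nuclei and is the median across plates. Nuclei were counted by MetaXpress from 4× Hoechst images.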

Tipifarnib + Foretinib = compound: Cn1cncc1[C@@](N)(c1ccc(Cl)cc1)c1ccc2c(c1)c(-c1cccc(Cl)c1)cc(=O)n2C [Tipifarnib] + COc1cc2c(Oc3ccc(NC(=O)C4(C(=O)Nc5ccc(F)cc5)CC4)cc3F)ccnc2cc1OCCCN1CCOCC1 [Foretinib] (partner 0.25 µM)
Summary of the method: (§1)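 Medians of duplicate plates are given as relative viability. That measure is the nuclei count in treated wells divided by the count in vehicle wells. Counts were taken on 4× images of lung cancer cell lines in 1536-well plates, 5 days after pin-tool dosing the day after seeding with one drug alone or a fixed anchor-drug dose plus five library-drug doses (not always all listed) in √10 steps.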

Tipifarnib + Palbociclib = compound: Cn1cncc1[C@@](N)(c1ccc(Cl)cc1)c1ccc2c(c1)c(-c1cccc(Cl)c1)cc(=O)n2C [Tipifarnib] + CC(=O)c1c(C)c2cnc(Nc3ccc(N4CCNCC4)cn3)nc2n(C2CCCC2)c1=O [Palbociclib] (partner 0.5 µM)
Summary of the method: as §1

Tipifarnib + OSI-027 = compound: Cn1cncc1[C@@](N)(c1ccc(Cl)cc1)c1ccc2c(c1)c(-c1cccc(Cl)c1)cc(=O)n2C [Tipifarnib] + COc1cccc2cc(-c3nc([C@H]4CC[C@H](C(=O)O)CC4)n4ncnc(N)c34)[nH]c12 [OSI-027] (partner 0.5 µM)
Summary of the method: as §1

Cell Line | relative viability (Tipifarnib; 0.01 µM) | relative viability (Tipifarnib; 0.03162 µM) | relative viability (Tipifarnib; 0.1 µM) | relative viability (Tipifarnib; 0.3162 µM) | relative viability (Tipifarnib; 1 µM) | relative viability (Tipifarnib + Foretinib; first compound 0.01 µM) | relative viability (Tipifarnib + Foretinib; first compound 0.03162 µM) | relative viability (Tipifarnib + Foretinib; first compound 0.1 µM) | relative viability (Tipifarnib + Foretinib; first compound 0.3162 µM) | relative viability (Tipifarnib + Foretinib; first compound 1 µM) | relative viability (Tipifarnib + Palbociclib; first compound 0.01 µM) | relative viability (Tipifarnib + Palbociclib; first compound 0.03162 µM) | relative viability (Tipifarnib + Palbociclib; first compound 0.1 µM) | relative viability (Tipifarnib + Palbociclib; first compound 0.3162 µM) | relative viability (Tipifarnib + Palbociclib; first compound 1 µM) | relative viability (Tipifarnib + OSI-027; first compound 0.01 µM) | relative viability (Tipifarnib + OSI-027; first compound 0.03162 µM) | relative viability (Tipifarnib + OSI-027; first compound 0.1 µM) | relative viability (Tipifarnib + OSI-027; first compound 0.3162 µM) | relative viability (Tipifarnib + OSI-027; first compound 1 µM)
PC-14 | 0.9 | 0.695 | 0.481 | 0.32 | 0.263 | 0.954 | 1.01 | 0.912 | 0.602 | 0.289 | 0.42 | 0.346 | 0.226 | 0.15 | 0.163 | 0.795 | 0.29 | 0.216 | 0.157 | 0.124
RERF-LC-KJ | 1.1 | 0.948 | 0.899 | 0.697 | 0.665 | 0.917 | 0.965 | 0.799 | 0.773 | 0.393 | 1.22 | 1.12 | 0.957 | 0.813 | 0.784 | 0.529 | 0.427 | 0.392 | 0.41 | 0.309
SK-LU-1 | 1.03 | 0.778 | 0.711 | 0.536 | 0.634 | 0.877 | 0.723 | 0.542 | 0.481 | 0.477 | 0.398 | 0.353 | 0.393 | 0.357 | 0.335 | 0.324 | 0.286 | 0.293 | 0.222 | 0.181
SK-MES-1 | 1.07 | 0.933 | 0.909 | 0.727 | 0.704 | 0.916 | 0.869 | 0.905 | 0.681 | 0.542 | 0.337 | 0.3 | 0.304 | 0.245 | 0.3 | 0.642 | 0.453 | 0.354 | 0.265 | 0.332
SW 1573 | 0.965 | 0.603 | 0.477 | 0.42 | 0.357 | 1.12 | 0.873 | 0.657 | 0.498 | 0.173 | 0.427 | 0.239 | 0.211 | 0.183 | 0.186 | 0.583 | 0.244 | 0.292 | 0.238 | 0.17
UMC-11 | 0.884 | 0.641 | 0.566 | 0.517 | 0.432 | 0.856 | 0.725 | 0.612 | 0.616 | 0.578 | 0.342 | 0.306 | 0.295 | 0.273 | 0.262 | 0.432 | 0.359 | 0.348 | 0.301 | 0.343
